From patent publication US20080242663A1, “NOVEL PYRIMIDINE DERIVATIVES 698” (ASTRAZENECA AB, priority 2007, published 2008)

target: T1, recombinant EphB4 (Homo sapiens, UniProt P54760); assay: In vitro EphB4 enzyme assay (Alphascreen); format: biochemical
T1 construct: amino acids 563-987; Swiss-Prot Acc; No. P54760; purchased ProQinase GmbH 0178-0000-3
T1 sequence (P54760 563-987): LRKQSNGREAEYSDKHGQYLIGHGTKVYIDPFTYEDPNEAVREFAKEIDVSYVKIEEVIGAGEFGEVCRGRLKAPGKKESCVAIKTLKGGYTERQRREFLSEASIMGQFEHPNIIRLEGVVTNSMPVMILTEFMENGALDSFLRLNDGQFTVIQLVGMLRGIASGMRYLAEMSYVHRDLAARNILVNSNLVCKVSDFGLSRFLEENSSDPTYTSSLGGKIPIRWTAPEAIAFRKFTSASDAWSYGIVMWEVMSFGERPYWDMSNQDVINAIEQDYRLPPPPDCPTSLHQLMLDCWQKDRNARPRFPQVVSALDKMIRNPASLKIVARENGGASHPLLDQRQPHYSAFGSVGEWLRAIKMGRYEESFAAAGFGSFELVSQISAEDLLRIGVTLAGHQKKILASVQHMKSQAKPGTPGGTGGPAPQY
Procedure, shortened: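 Recombinant EphB4 phosphorylated biotin-poly-GAT with Mg-ATP for 1 hr at room temperature; EDTA stop, then Alphascreen donor/acceptor (anti-phosphotyrosine) beads for 20 hrs in the dark. After minimum subtraction, signal plotted against compound concentration to derive IC50.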

| IC50 | Compound |
| --- | --- |
| 1.31 µM | CN(c1ccnc(Nc2cc(N3CCOCC3)cc(N3CCOCC3)c2)n1)c1cccc(Cl)c1Cl [Example 15.21, N′-(2,3-dichlorophenyl)-N-(3,5-dimorpholin-4-ylphenyl)-N′-methyl-pyrimidine-2,4-diamine] |
| 0.316 µM | CN(c1ccc(F)c(Cl)c1)c1ccnc(Nc2cc(N3CCOCC3)cc(N3CCOCC3)c2)n1 [Example 15.22, N′-(4-fluoro-3-chloro-phenyl)-N-(3,5-dimorpholin-4-ylphenyl)-N′-methyl-pyrimidine-2,4-diamine] |
| 0.132 µM | CCOc1cc(Nc2nccc(N(C)c3cc(CO)ccc3C)n2)cc(N2CCOCC2)c1 [Example 16, [3-[[2-[(3-ethoxy-5-morpholin-4-yl-phenyl)amino]pyrimidin-4-yl]-methyl-amino]-4-methyl-phenyl]methanol] |
| 0.265 µM | CCCOc1cc(Nc2nccc(N(C)c3cc(CO)ccc3C)n2)cc(N2CCOCC2)c1 [Example 17.1, [4-methyl-3-[methyl-[2-[(3-morpholin-4-yl-5-propoxy-phenyl)amino]pyrimidin-4-yl]amino]phenyl]methanol] |
| 0.171 µM | Cc1ccc(CO)cc1N(C)c1ccnc(Nc2cc(OC(C)C)cc(N3CCOCC3)c2)n1 [Example 17.2, [4-methyl-3-[methyl-[2-[(3-morpholin-4-yl-5-propan-2-yloxy-phenyl)amino]pyrimidin-4-yl]amino]phenyl]methanol] |
| 1.91 µM | Cc1ccc(CO)cc1N(C)c1ccnc(Nc2cc(OCC(C)C)cc(N3CCOCC3)c2)n1 [Example 17.3, [4-methyl-3-[methyl-[2-[[3-(2-methylpropoxy)-5-morpholin-4-yl-phenyl]amino]pyrimidin-4-yl]amino]phenyl]methanol] |
| 1.09 µM | Cc1ccc(CO)cc1N(C)c1ccnc(Nc2cc(OCC3CC3)cc(N3CCOCC3)c2)n1 [Example 17.4] |
| 0.951 µM | Cc1ccc(CO)cc1N(C)c1ccnc(Nc2cc(OC3CCC3)cc(N3CCOCC3)c2)n1 [Example 17.5, [3-[[2-[(3-cyclobutyloxy-5-morpholin-4-yl-phenyl)amino]pyrimidin-4-yl]-methyl-amino]-4-methyl-phenyl]methanol] |
| 0.639 µM | CCOCCOc1cc(Nc2nccc(N(C)c3cc(CO)ccc3C)n2)cc(N2CCOCC2)c1 [Example 17.7, [3-[[2-[[3-(2-ethoxyethoxy)-5-morpholin-4-yl-phenyl]amino]pyrimidin-4-yl]-methyl-amino]-4-methyl-phenyl]methanol] |
| 0.481 µM | Cc1ccc(CO)cc1N(C)c1ccnc(Nc2cc(OC3CCOC3)cc(N3CCOCC3)c2)n1 (stereo not drawn) [Example 17.8, [4-methyl-3-[methyl-[2-[[3-morpholin-4-yl-5-(oxolan-3-yloxy)phenyl]ami-no]pyrimidin-4-yl]amino]phenyl]methanol] |
| 0.443 µM | Cc1ccc(CO)cc1N(C)c1ccnc(Nc2cc(O[C@H]3CCOC3)cc(N3CCOCC3)c2)n1 [Example 17.9, [4-methyl-3-[methyl-[2-[[3-morpholin-4-yl-5-[(3S)-oxolan-3-yl]oxyphenyl]ami-no]pyrimidin-4-yl]amino]phenyl]methanol] |
| 0.0623 µM | Cc1ccc(CO)cc1N(C)c1ccnc(Nc2cc(C(=O)N3CCCC3)cc(N3CCOCC3)c2)n1 [Example 18.2] |
| 0.246 µM | Cc1ccc(CO)cc1N(C)c1ccnc(Nc2cc(C(=O)NCC(C)C)cc(N3CCOCC3)c2)n1 [Example 18.3, 3-[[4-[[5-(hydroxymethyl)-2-methyl-phenyl]-methyl-amino]pyrimidin-2-yl]amino]-N-(2-methylpropyl)-5-morpholin-4-yl-benzamide] |
| 0.0753 µM | CCN(C)C(=O)c1cc(Nc2nccc(N(C)c3cc(CO)ccc3C)n2)cc(N2CCOCC2)c1 [Example 18.4, N-ethyl-3-[[4-[[5-(hydroxymethyl)-2-methyl-phenyl]-methyl-amino]pyrimidin-2-yl]amino]-N-methyl-5-morpholin-4-yl-benzamide] |
| 0.477 µM | Cc1ccc(CO)cc1N(C)c1ccnc(Nc2cc(C(=O)NCC3CC3)cc(N3CCOCC3)c2)n1 [Example 18.5, N-(cyclopropylmethyl)-3-[[4-[[5-(hydroxymethyl)-2-methyl-phenyl]-methyl-amino]pyrimidin-2-yl]amino]-5-morpholin-4-yl-benzamide] |
| 0.342 µM | Cc1ccc(CO)cc1N(C)c1ccnc(Nc2cc(C(=O)N(C)C(C)C)cc(N3CCOCC3)c2)n1 [Example 18.6, 3-[[4-[[5-(hydroxymethyl)-2-methyl-phenyl]-methyl-amino]pyrimidin-2-yl]amino]-N-methyl-5-morpholin-4-yl-N-propan-2-yl-benzamide] |

| IC50 | Compound |
| --- | --- |
| 0.118 µM | COCCN(C)C(=O)c1cc(Nc2nccc(N(C)c3cc(CO)ccc3C)n2)cc(N2CCOCC2)c1 [Example 18.7, 3-[[4-[[5-(hydroxymethyl)-2-methyl-phenyl]-methyl-amino]pyrimidin-2-yl]amino]-N-(2-methoxyethyl)-N-methyl-5-morpholin-4-yl-benzamide] |
| 0.419 µM | CN(C)C(=O)c1cc(Nc2nccc(N(C)c3cccc(Cl)c3)n2)cc(N2CCOCC2)c1 [Example 19.1, 3-[[4-[(3-chlorophenyl)-methyl-amino]pyrimidin-2-yl]amino]-N,N-dimethyl-5-morpholin-4-yl-benzamide] |
| 0.395 µM | CN(CCO)C(=O)c1cc(Nc2nccc(N(C)c3cccc(Cl)c3)n2)cc(N2CCOCC2)c1 [Example 19.2, 3-[[4-[(3-chlorophenyl)-methyl-amino]pyrimidin-2-yl]amino]-N-(2-hydroxyethyl)-N-methyl-5-morphohn-4-yl-benzamide] |
| 0.571 µM | COCCN(C)C(=O)c1cc(Nc2nccc(N(C)c3cccc(Cl)c3)n2)cc(N2CCOCC2)c1 [Example 19.3, 3-[[4-[(3-chlorophenyl)-methyl-amino]pyrimidin-2-yl]amino]-N-(2-methoxyethyl)-N-methyl-5-morpholin-4-yl-benzamide] |
| 0.295 µM | CN(CCCO)C(=O)c1cc(Nc2nccc(N(C)c3cccc(Cl)c3)n2)cc(N2CCOCC2)c1 [Example 19.4, 3-[[4-[(3-chlorophenyl)-methyl-amino]pyrimidin-2-yl]amino]-N-(3-hydroxypropyl)-N-methyl-5-morpholin-4-yl-benzamide] |
| 0.181 µM | C[C@H](O)CN(C)C(=O)c1cc(Nc2nccc(N(C)c3cccc(Cl)c3)n2)cc(N2CCOCC2)c1 [Example 19.5, 3-[[4-[(3-chlorophenyl)-methyl-amino]pyrimidin-2-yl]amino]-N-[(2S)-2-hydroxypropyl]-N-methyl-5-morpholin-4-yl-benzamide] |
| 0.339 µM | C[C@@H](CO)N(C)C(=O)c1cc(Nc2nccc(N(C)c3cccc(Cl)c3)n2)cc(N2CCOCC2)c1 [Example 19.6] |
| 0.648 µM | CCN(C)C(=O)c1cc(Nc2nccc(N(C)c3cccc(Cl)c3)n2)cc(N2CCOCC2)c1 [Example 19.7, 3-[[4-[(3-chlorophenyl)-methyl-amino]pyrimidin-2-yl]amino]-N-ethyl-N-methyl-5-morpholin-4-yl-benzamide] |
| 1.45 µM | CC(C)N(C)C(=O)c1cc(Nc2nccc(N(C)c3cccc(Cl)c3)n2)cc(N2CCOCC2)c1 [Example 19.8] |
| 0.754 µM | CN(c1cccc(Cl)c1)c1ccnc(Nc2cc(C(=O)N3CCCC3)cc(N3CCOCC3)c2)n1 [Example 19.9] |
| 0.656 µM | CN(c1cccc(Cl)c1)c1ccnc(Nc2cc(C(=O)N3CCOCC3)cc(N3CCOCC3)c2)n1 [Example 19.10, [3-[[4-[(3-chlorophenyl)-methyl-amino]pyrimidin-2-yl]amino]-5-morpholin-4-yl-phenyl]-morpholin-4-yl-methanone] |
| 0.207 µM | CN1CCN(C(=O)c2cc(Nc3nccc(N(C)c4cccc(Cl)c4)n3)cc(N3CCOCC3)c2)CC1 [Example 19.11, [3-[[4-[(3-chlorophenyl)-methyl-amino]pyrimidin-2-yl]amino]-5-morpholin-4-yl-phenyl]-(4-methylpiperazin-1-yl)methanone] |
| 0.234 µM | CN(c1cccc(Cl)c1)c1ccnc(Nc2cc(C(=O)N3CCC(O)CC3)cc(N3CCOCC3)c2)n1 [Example 19.12, [3-[[4-[(3-chlorophenyl)-methyl-amino]pyrimidin-2-yl]amino]-5-morpholin-4-yl-phenyl]-(4-hydroxy-1-piperidyl) methanone] |
| 2.08 µM | CN(c1cccc(Cl)c1)c1ccnc(Nc2cc(C(=O)NC3CCC3)cc(N3CCOCC3)c2)n1 [Example 19.13, 3-[[4-[(3-chlorophenyl)-methyl-amino]pyrimidin-2-yl]amino]-N-cyclobutyl-5-morpholin-4-yl-benzamide] |
| 1.18 µM | CC(C)NC(=O)c1cc(Nc2nccc(N(C)c3cccc(Cl)c3)n2)cc(N2CCOCC2)c1 [Example 19.14, 3-[[4-[(3-chlorophenyl)-methyl-amino]pyrimidin-2-yl]amino]-5-morpholin-4-yl-N-propan-2-yl-benzamide] |
| 1.1 µM | COCC(C)NC(=O)c1cc(Nc2nccc(N(C)c3cccc(Cl)c3)n2)cc(N2CCOCC2)c1 (stereo not drawn) [Example 19.15, 3-[[4-[(3-chlorophenyl)-methyl-amino]pyrimidin-2-yl]amino]-N-(1-methoxypropan-2-yl)-5-morpholin-4-yl-benzamide] |

| Compound | IC50 |
| --- | --- |
| COC(C)CCOc1cc(Nc2nccc(N(C)c3cc(CO)ccc3C)n2)cc(N2CCOCC2)c1 (stereo not drawn) [Example 17.6, [3-[[2-[[3-(3-methoxybutoxy)-5-morpholin-4-yl-phenyl]amino]pyrimidin-4-yl]-methyl-amino]-4-methyl-phenyl]methanol] | 1.21 µM |
